In patent publication US4211693A, “Peptides with para-substituted phenylalanine” (The Salk Institute for Biological Studies, priority 1978, dated 1980):
Where two headings read alike, the source gives them in different places. Where a SMILES comes first, the peptide text is derived from it. Bridges are numbered along the chain shown (N, C = ends). [ ]: non-standard residue; d: D form. Phe(4-Cl) = N[C@@H](Cc1ccc(Cl)cc1)C(=O)O

Columns and labels:
secretion of glucagon = format: in vivo, Male Sprague-Dawley-CD rats
Method: (§1) In vivo Bioassay: Male Sprague-Dawley-CD rats weighing 180-200 g housed in temperature and humidity controlled quarters with 14 h light and 10 h dark (light 0700-[…]) were used in all experiments. Animals were fed a standard ration and tap water ad libitum. Experiments were carried out at least 5 days after arrival of rats from the supplier between the hours 1400 and 1600. After ether anesthesia, peptides or saline were administered in a volume of 0.2 ml via the external jugular vein. Animals remained anesthetized until the time of blood collection from the portal vein. Blood collection was performed at various times after administration of the peptide or saline. The blood samples were placed into chilled tubes containing 10 mg EDTA and 50 μl of 2 M Benzamidine per ml of blood.
(§2) All experiments were carried on in a randomized block design. Following analysis of variance difference between treatmments were determined by the multiple range tests of Dunnett and Duncan. Potency values were calculated from four or six point bioassays.

secretion of insulin = format: in vivo, Male Sprague-Dawley-CD rats
Method: as §1, §2

[1] = tested on: secretion of growth hormone
Method: GH determinations were performed on tissue culture media utilizing the following reagents: NIAMDD rat GH standard (GH-RP-1), NIAMDD monkey anti-rat GH (GH-Serum-3), and highly purified rat GH for iodination.

[2] = somatostatin = 100, peptide via external jugular vein, blood from portal vein, four or six point bioassays

C[C@@H](O)[C@@H]1NC(=O)[C@H](CCCCN)NC(=O)[C@@H](Cc2c[nH]c3ccccc23)NC(=O)[C@H](Cc2ccccc2)NC(=O)[C@H](Cc2ccc(Cl)cc2)NC(=O)[C@@H](N)CSSC[C@@H](C(=O)O)NC(=O)[C@H](Cc2ccc(Cl)cc2)NC1=O [Des--AA^1,2,4,5,12,13 --[P Cl Phe^6,11]--D-Trp^8 --SS] (H-C[Phe(4-Cl)]F[dW]KT[Phe(4-Cl)]C-OH; disulfide 1-8)
Relative potency to inhibit the secretion of GLUCAGON (secretion of glucagon; rat, in vivo): > 1 | Relative potency to inhibit the secretion of INSULIN (secretion of insulin; rat, in vivo): 27

C[C@H](N)C(=O)NCC(=O)N[C@H]1CSSC[C@@H](C(=O)O)NC(=O)[C@@H](CO)NC(=O)[C@H]([C@@H](C)O)NC(=O)[C@H](Cc2ccc(Cl)cc2)NC(=O)[C@H]([C@@H](C)O)NC(=O)[C@H](CCCCN)NC(=O)[C@@H](Cc2c[nH]c3ccccc23)NC(=O)[C@H](Cc2ccc(Cl)cc2)NC(=O)[C@H](Cc2ccc(Cl)cc2)NC(=O)[C@H](CCCCN)NC1=O [Des--Asn^5 --[P Cl Phe^6,7,11]--D-Trp^8 --D--Ser^13 --SS] (H-AGCK[Phe(4-Cl)][Phe(4-Cl)][dW]KT[Phe(4-Cl)]T[dS]C-OH; disulfide 3-13)
Relative potency to inhibit the secretion of GLUCAGON (secretion of glucagon; rat, in vivo): > 1 | Relative potency to inhibit the secretion of INSULIN (secretion of insulin; rat, in vivo): 127

C[C@H](N)C(=O)NCC(=O)N[C@H]1CSSC[C@@H](C(=O)O)NC(=O)[C@H](CO)NC(=O)[C@H]([C@@H](C)O)NC(=O)[C@H](Cc2ccccc2)NC(=O)[C@H]([C@@H](C)O)NC(=O)[C@H](CCCCN)NC(=O)[C@H](Cc2c[nH]c3ccccc23)NC(=O)[C@H](Cc2ccccc2)NC(=O)[C@H](Cc2ccccc2)NC(=O)[C@H](CC(N)=O)NC(=O)[C@H](CCCCN)NC1=O [Somatostatin (SS), Somatostatin, reference compound]
Relative potency to inhibit the secretion of GH (growth hormone) ([1]; somatostatin = 100, GH in tissue culture media, four or six point bioassays): 100 | Relative potency to inhibit the secretion of GLUCAGON (secretion of glucagon; [2]): 100 | Relative potency to inhibit the secretion of INSULIN (secretion of insulin; [2]): 100

C[C@H](N)C(=O)NCC(=O)N[C@H]1CSSC[C@@H](C(=O)O)NC(=O)[C@H](CO)NC(=O)[C@H]([C@@H](C)O)NC(=O)[C@H](Cc2ccc(Cl)cc2)NC(=O)[C@H]([C@@H](C)O)NC(=O)[C@H](CCCCN)NC(=O)[C@H](Cc2c[nH]c3ccccc23)NC(=O)[C@H](Cc2ccc(Cl)cc2)NC(=O)[C@H](Cc2ccc(Cl)cc2)NC(=O)[C@H](CC(N)=O)NC(=O)[C@H](CCCCN)NC1=O [[P Cl Phe^6,7,11]--SS]
Relative potency to inhibit the secretion of GH (growth hormone) [1]: 78 | Relative potency to inhibit the secretion of GLUCAGON (secretion of glucagon; rat, in vivo): 900 | Relative potency to inhibit the secretion of INSULIN (secretion of insulin; rat, in vivo): 800

C[C@H](N)C(=O)NCC(=O)N[C@H]1CSSC[C@@H](C(=O)O)NC(=O)[C@H](CO)NC(=O)[C@H]([C@@H](C)O)NC(=O)[C@H](Cc2ccccc2)NC(=O)[C@H]([C@@H](C)O)NC(=O)[C@H](CCCCN)NC(=O)[C@H](Cc2c[nH]c3ccccc23)NC(=O)[C@H](Cc2ccccc2)NC(=O)[C@H](Cc2ccc(Cl)cc2)NC(=O)[C@H](CC(N)=O)NC(=O)[C@H](CCCCN)NC1=O [[P Cl Phe^6]--SS]
Relative potency to inhibit the secretion of GLUCAGON (secretion of glucagon; rat, in vivo): 100 | Relative potency to inhibit the secretion of INSULIN (secretion of insulin; rat, in vivo): 100

C[C@H](N)C(=O)NCC(=O)N[C@H]1CSSC[C@@H](C(=O)O)NC(=O)[C@H](CO)NC(=O)[C@H]([C@@H](C)O)NC(=O)[C@H](Cc2ccccc2)NC(=O)[C@H]([C@@H](C)O)NC(=O)[C@H](CCCCN)NC(=O)[C@@H](Cc2c[nH]c3ccccc23)NC(=O)[C@H](Cc2ccccc2)NC(=O)[C@H](Cc2ccc(I)cc2)NC(=O)[C@H](CC(N)=O)NC(=O)[C@H](CCCCN)NC1=O [[P I Phe^6]--D-Trp^8 --SS]
Relative potency to inhibit the secretion of GLUCAGON (secretion of glucagon; rat, in vivo): 100 | Relative potency to inhibit the secretion of INSULIN (secretion of insulin; rat, in vivo): 100

C[C@H](N)C(=O)NCC(=O)N[C@H]1CSSC[C@@H](C(=O)O)NC(=O)[C@H](CO)NC(=O)[C@H]([C@@H](C)O)NC(=O)[C@H](Cc2ccccc2)NC(=O)[C@H]([C@@H](C)O)NC(=O)[C@H](CCCCN)NC(=O)[C@@H](Cc2c[nH]c3ccccc23)NC(=O)[C@H](Cc2ccc(I)cc2)NC(=O)[C@H](Cc2ccccc2)NC(=O)[C@H](CC(N)=O)NC(=O)[C@H](CCCCN)NC1=O [[P I Phe^7]--D-Trp^8 --SS]
Relative potency to inhibit the secretion of GLUCAGON (secretion of glucagon; rat, in vivo): 100 | Relative potency to inhibit the secretion of INSULIN (secretion of insulin; rat, in vivo): 100

C[C@H](N)C(=O)NCC(=O)N[C@H]1CSSC[C@@H](C(=O)O)NC(=O)[C@H](CO)NC(=O)[C@H]([C@@H](C)O)NC(=O)[C@H](Cc2ccc(I)cc2)NC(=O)[C@H]([C@@H](C)O)NC(=O)[C@H](CCCCN)NC(=O)[C@@H](Cc2c[nH]c3ccccc23)NC(=O)[C@H](Cc2ccccc2)NC(=O)[C@H](Cc2ccccc2)NC(=O)[C@H](CC(N)=O)NC(=O)[C@H](CCCCN)NC1=O [[P I Phe^11]--D-Trp^8 --SS]
Relative potency to inhibit the secretion of GLUCAGON (secretion of glucagon; rat, in vivo): 800 | Relative potency to inhibit the secretion of INSULIN (secretion of insulin; rat, in vivo): 33

C[C@H](N)C(=O)NCC(=O)N[C@H]1CSSC[C@@H](C(=O)O)NC(=O)[C@H](CO)NC(=O)[C@H]([C@@H](C)O)NC(=O)[C@H](Cc2ccc(I)cc2)NC(=O)[C@H]([C@@H](C)O)NC(=O)[C@H](CCCCN)NC(=O)[C@H](Cc2c[nH]c3ccccc23)NC(=O)[C@H](Cc2ccccc2)NC(=O)[C@H](Cc2ccccc2)NC(=O)[C@H](CC(N)=O)NC(=O)[C@H](CCCCN)NC1=O [[P I Phe^11]--SS]
Relative potency to inhibit the secretion of GH (growth hormone) [1]: 100 | Relative potency to inhibit the secretion of GLUCAGON (secretion of glucagon; rat, in vivo): 900 | Relative potency to inhibit the secretion of INSULIN (secretion of insulin; rat, in vivo): 950
